From patent US8729280B2, “Five crystal forms, methods of preparation, pharmaceutical compositions and applications of XLF-III-43” (Institute of Mataria Medica, Chinese Academy of Medical …, priority 2008, dated 2014) come the findings set out here.

Data set [1] can be described thus: Influences of different crystalline forms on blood drug levels in rats (pharmacokinetic study, HPLC of plasma). In kind it is in vivo. The procedure:
1. Crystal Samples: crystalline form II and V of XLF-III-43, dispersant agent of crystalline form II (obtained by comminuting crystalline form II and V of XLF-III-43).
2. Methodology study of detecting blood drug level
(1) Experimental Conditions:
HPLC: waters 2690 chromatography system, 2487 UV detector, Milnicousamidem 32 chromatography management system. Column: 4.6×250 mm Spherisorb C18 5 μm; flow rate: 1.0 ml/min; column temperature: 25° C.; detection wavelength: 330 nm. After treated by solid phase extraction, plasma samples were directly injected and analyzed.
(4) Recovery experiment: extraction recoveries (greater than 75%) meet the requests that SFDA issued on methods of pharmacokinetic study.
(5) Sensitivity: minimum detectable amount was 2 ng/ml, the minimum limit of quantification was 5 ng/ml.

Data set [2] concerns acute renal function injury in mice induced by Cisplatin. The experiment in a line: Effects of different crystalline forms of XLF-III-43 on acute renal function injury in mice induced by Cisplatin (serum BUN and Scr). Format: in vivo, Male Kunming mice. The following applies: for BUN / BUN reduction (%) / Scr / Scr reduction (%): dose 25.0 × 3 mg/kg. How it is done:
Objective: To observe the effects of different crystal forms of XLF-III-43 on acute renal function injury in mice induced by Cisplatin
Reagents: crystalline form I, II and V of XLF-III-43, all were prepared into suspensions with 0.5% sodium carboxymethylcellulose. Positive control: Losartan potassium, ATIRA Hangzhou Merck Sharp & Dohme Pharmaceutics Company, lot number: S1241. Crude drug of Cisplatin (DDP): Supplied by Shandong Qilu Pharmaceutics Company.
Animal: Male Kunming mice weighing 16 to 22 g were purchased from Institute of Laboratory Animal Sciences, Chinese Academy of Medical Sciences (Type II, Certificate No: SCXK-Jing 2000-0006). All the mice were feeded in standard breeding boxes, 5 per box, kept these boxes dry and clean, ventilate and sterilize animal room at fixed time, lightening time: 8:00-20:00, room temperature: 20-26° C., humidity: 40-70%, forage: clean breeding forage, bought from Animal Center of Academy of Military Medical Sciences, Certificate No: SCXX-(army) 2002-001.
Serum biochemistry kit: Beijing Beihua Refined Chemical Limited-liability Company
Apparatus: WELLSCAN MK3 Scanner, Germent SIGMA3K 15 Centrifuge, TGL-16G Freezing Centrifuge, Shanghai Anting Scientific Instrument Factory, Votex, American Bohemia N.Y Company.
Animal grouping: According to body weights, male Kunming mice weighing 18 to 22 grams were randomly divided into […] groups: control group, Cisplatin group (model group), Losartan potassium group, groups of three crystal forms of XLF-III-43, n=8 for each group.
Modeling and administrating: XLF-III-43 were dissolved in 0.5% sodium carboxymethylcellulose, Losartan potassium and Cisplatin were dissolved in physiological saline. Since two days before giving Cisplatin by peritoneal injection, Losartan potassium group and groups of three crystal forms of XLF-III-43 were intraperitoneally administered respectively. Control animals received an equal volume of physiological saline.
Serum parameters detecting: Blood samples were collected from the orbital venous plexus at day 3, 5, and 7 after injecting Cisplatin. Serum BUN and Scr were detected by serum biochemistry kit.

The mark [3] stands for this setting: 3 days after injecting Cisplatin.
Setting [4] is: 5 days after injecting Cisplatin.
Where [5] appears, read: 7 days after injecting Cisplatin.
Setting [6] is: one-time orally administered at 30 mg/kg, preliminary pharmacokinetic.

Bounds are passed on as bounds.

Consider “3-(3′-carboxy-4′-hydroxy-anilino-carbo-)-6-nitro-7-hydroxy-8-methyl-coumarin [crystalline form V of XLF-III-43]”, for which the blood/plasma concentration result in data set [1] (oral, FIG. 22, within a certain period of time) was “higher blood concentration than crystalline form II of XLF-III-43”. Besides, the “dose-effect relationship of renal function protective effect” value in data set [2] (Cisplatin model) was “good dose-effect relationship”. The “renal function protective effect (serum Scr and BUN)” value in data set [2] (Cisplatin model, compared among treated groups (crystalline form I, II, V, Losartan potassium)) was “best renal function protective effect”.

For the compound `CCCCc1nc(Cl)c(CO)n1Cc1ccc(-c2ccccc2-c2nn[nH]n2)cc1` [Losartan], in data set [2] (setting [3]), the BUN amounted to 30.58 ± 4.19 mg/dL, the “BUN reduction (%)” value is reported as −1.9%, the Scr was determined as 1.41 ± 1.00 mg/dL and the “Scr reduction (%)” value is 22.4%. In data set [2] (setting [4]), the BUN was found to be 31.75 ± 9.32 mg/dL, the “BUN reduction (%)” value was 24.6%, the Scr stood at 1.16 ± 0.48 mg/dL and the “Scr reduction (%)” value is recorded as 39.3%. In addition, in data set [2] (setting [5]), the BUN is listed as 30.32 ± 2.89 mg/dL, the “BUN reduction (%)” value came out at 23.8%, the Scr stood at 1.74 ± 0.31 mg/dL and the “Scr reduction (%)” value stood at 34.7%.

Take “3-(3′-carboxy-4′-hydroxy-anilino-carbo-)-6-nitro-7-hydroxy-8-methyl-coumarin [XLF-III-43]”: in data set [1] (one-time orally administered at 30 mg/kg), the “time within which it could be detected in plasma” value is at most 36 h. For the same compound, the “detection in plasma at 48 h” value in data set [1] (one-time orally administered at 30 mg/kg, 48 h) is listed as “could not be detected”. Besides, in data set [1] (setting [6]), the “maximum plasma concentration Cmax” value came to 2000 ng/mL and the “peak time (Tmax)” value was 30 min.
